Columns and labels:
[1] = target: WT BET bromodomains (BD1 and BD2 of BRD2, BRD3 and BRD4); assay: competitive AlphaLISA (Bio-JQ1 displacement); format: binding, human; conditions: mean and SD of all somatic bromodomains; active enantiomer concentration
[2] = test system: L/V BET bromodomains (BD1 and BD2 of BRD2, BRD3 and BRD4); assay: competitive AlphaLISA (Bio-JQ1 displacement); format: binding, human
BRD2 BD1 WT [3] = target: T1, BRD2 BD1 WT (Homo sapiens, UniProt P25440); assay: competitive AlphaLISA; format: binding; conditions: read-out: AlphaLISA pIC50 Value BRD2 BD1 WT (converted)
BRD2 BD1 L/V [4] = target: T2, BRD2 BD1 L/V (Homo sapiens, UniProt P25440, L110V); assay: competitive AlphaLISA; format: binding; conditions: read-out: AlphaLISA pIC50 Value BRD2 BD1 L/V (converted)
BRD2 BD2 WT [5] = target: T3, BRD2 BD2 WT (Homo sapiens, UniProt P25440); assay: competitive AlphaLISA; format: binding; conditions: read-out: AlphaLISA pIC50 Value BRD2 BD2 WT (converted)
BRD2 BD2 L/V [6] = target: T4, BRD2 BD2 L/V (Homo sapiens, UniProt P25440, L383V); assay: competitive AlphaLISA; format: binding; conditions: read-out: AlphaLISA pIC50 Value BRD2 BD2 L/V (converted)
BRD3 BD1 WT [7] = target: T5, BRD3 BD1 WT (Homo sapiens, UniProt Q15059); assay: competitive AlphaLISA; format: binding; conditions: read-out: AlphaLISA pIC50 Value BRD3 BD1 WT (converted)
BRD3 BD1 L/V [8] = target: T6, BRD3 BD1 L/V (Homo sapiens, UniProt Q15059, L70V); assay: competitive AlphaLISA; format: binding; conditions: read-out: AlphaLISA pIC50 Value BRD3 BD1 L/V (converted)
BRD3 BD2 WT [9] = target: T7, BRD3 BD2 WT (Homo sapiens, UniProt Q15059); assay: competitive AlphaLISA; format: binding; conditions: read-out: AlphaLISA pIC50 Value BRD3 BD2 WT (converted)
BRD3 BD2 L/V [10] = target: T8, BRD3 BD2 L/V (Homo sapiens, UniProt Q15059, L345V); assay: competitive AlphaLISA; format: binding; conditions: read-out: AlphaLISA pIC50 Value BRD3 BD2 L/V (converted)
BRD4 BD1 WT [11] = target: T9, BRD4 BD1 WT (Homo sapiens, UniProt O60885); assay: competitive AlphaLISA; format: binding; conditions: read-out: AlphaLISA pIC50 Value BRD4 BD1 WT (converted)
BRD4 BD1 L/V [12] = target: T10, BRD4 BD1 L/V (Homo sapiens, UniProt O60885, L94V); assay: competitive AlphaLISA; format: binding; conditions: read-out: AlphaLISA pIC50 Value BRD4 BD1 L/V (converted)
BRD4 BD2 WT [13] = target: T11, BRD4 BD2 WT (Homo sapiens, UniProt O60885); assay: competitive AlphaLISA; format: binding; conditions: read-out: AlphaLISA pIC50 Value BRD4 BD2 WT (converted)
BRD4 BD2 L/V [14] = target: T12, BRD4 BD2 L/V (Homo sapiens, UniProt O60885, L387V); assay: competitive AlphaLISA; format: binding; conditions: read-out: AlphaLISA pIC50 Value BRD4 BD2 L/V (converted)
BRDT BD1 WT = BRDT BD1 WT (Homo sapiens, UniProt Q58F21); assay: competitive AlphaLISA; format: binding; conditions: read-out: AlphaLISA pIC50 Value BRDT BD1 WT (converted)
BRDT BD2 WT = BRDT BD2 WT (Homo sapiens, UniProt Q58F21); assay: competitive AlphaLISA; format: binding; conditions: read-out: AlphaLISA pIC50 Value BRDT BD2 WT (converted)
BRDT BD2 L/V = BRDT BD2 L/V (Homo sapiens, UniProt Q58F21, L306V); assay: competitive AlphaLISA; format: binding; conditions: read-out: AlphaLISA pIC50 Value BRDT BD2 L/V (converted)
BRD2 BD1 WT [15] = target: T1, BRD2 BD1 WT; assay: ITC; format: binding; conditions: ITC, 30°C; read-out: Kd BRD2 BD1 WT
BRD2 BD1 L/V [16] = target: T2, BRD2 BD1 L/V; assay: ITC; format: binding
BRD2 BD2 WT [17] = target: T3, BRD2 BD2 WT; assay: ITC; format: binding; conditions: ITC, 30°C; read-out: Kd BRD2 BD2 WT
BRD2 BD2 L/V [18] = target: T4, BRD2 BD2 L/V; assay: ITC; format: binding
BRD3 BD1 WT [19] = target: T5, BRD3 BD1 WT; assay: ITC; format: binding; conditions: ITC, 30°C; read-out: Kd BRD3 BD1 WT
BRD3 BD1 L/V [20] = target: T6, BRD3 BD1 L/V; assay: ITC; format: binding
BRD3 BD2 WT [21] = target: T7, BRD3 BD2 WT; assay: ITC; format: binding; conditions: ITC, 30°C; read-out: Kd BRD3 BD2 WT
BRD3 BD2 L/V [22] = target: T8, BRD3 BD2 L/V; assay: ITC; format: binding
BRD4 BD1 WT [23] = target: T9, BRD4 BD1 WT; assay: ITC; format: binding; conditions: ITC, 30°C; read-out: Kd BRD4 BD1 WT
BRD4 BD1 L/V [24] = target: T10, BRD4 BD1 L/V; assay: ITC; format: binding
BRD4 BD2 WT [25] = target: T11, BRD4 BD2 WT; assay: ITC; format: binding; conditions: ITC, 30°C; read-out: Kd BRD4 BD2 WT
BRD4 BD2 L/V [26] = target: T12, BRD4 BD2 L/V; assay: ITC; format: binding
[27] = test system: WT somatic BET bromodomains; assay: ITC
[28] = test system: L/V somatic BET bromodomains; assay: ITC
in vitro [29] = conditions: BALB/c, mouse, plasma, pH 7.4
in vitro [30] = conditions: PAMPA, pH 7.4
[31] = mean and SD of all somatic bromodomains

T2 sequence (P25440 71-176 L110V limits assumed): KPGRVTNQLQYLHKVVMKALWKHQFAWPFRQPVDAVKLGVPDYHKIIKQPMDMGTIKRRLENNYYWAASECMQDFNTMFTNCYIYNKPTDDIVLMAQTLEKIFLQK
T4 sequence (P25440 344-455 L383V): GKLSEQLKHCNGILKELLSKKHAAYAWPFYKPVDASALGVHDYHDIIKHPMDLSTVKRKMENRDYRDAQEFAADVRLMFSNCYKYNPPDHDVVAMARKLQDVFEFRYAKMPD
T6 sequence (Q15059 24-144 L70V limits assumed): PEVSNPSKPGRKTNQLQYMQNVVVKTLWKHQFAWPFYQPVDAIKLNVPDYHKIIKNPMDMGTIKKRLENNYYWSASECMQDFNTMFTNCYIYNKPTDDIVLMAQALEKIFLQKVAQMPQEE
T8 sequence (Q15059 306-416 L345V limits assumed): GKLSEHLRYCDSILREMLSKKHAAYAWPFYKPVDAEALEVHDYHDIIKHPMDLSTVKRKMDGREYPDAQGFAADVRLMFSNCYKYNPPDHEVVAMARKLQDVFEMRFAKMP
T7 sequence (Q15059 306-416): as the sequence (Q15059 306-416 L345V limits assumed) above, with V40L counted along it
T3 sequence (P25440 344-455): as the sequence (P25440 344-455 L383V) above, with V40L counted along it
T5 sequence (Q15059 24-144): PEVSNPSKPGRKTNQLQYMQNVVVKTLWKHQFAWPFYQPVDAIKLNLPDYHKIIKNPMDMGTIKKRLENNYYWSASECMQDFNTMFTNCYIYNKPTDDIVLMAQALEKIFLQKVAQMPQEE
T1 sequence (P25440 71-176): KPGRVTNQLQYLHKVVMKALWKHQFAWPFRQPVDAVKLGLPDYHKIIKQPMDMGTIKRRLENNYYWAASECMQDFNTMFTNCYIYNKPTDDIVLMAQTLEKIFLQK

CCNC(=O)[C@H](CC)[C@@H]1N=C(c2ccc(Cl)cc2)c2cc(OC)ccc2-n2c(C)nnc21 (relative stereo) [Compound 17]
AlphaLISA pIC50 ± SD WT [1]: 4.4 ± 0.1
AlphaLISA pIC50 ± SD Δ ([2]; L/V minus WT): 1.5 ± 0.2
AlphaLISA pIC50 ± SD L/V ([2]; mean and SD of all somatic bromodomains, active enantiomer concentration): 5.9 ± 0.3
IC50 (BRD2 BD1 WT [3]): 63.1 µM
IC50 (BRD2 BD1 L/V [4]): 3.16 µM
IC50 (BRD2 BD2 WT [5]): 25.1 µM
IC50 (BRD2 BD2 L/V [6]): 1.26 µM
IC50 (BRD3 BD1 WT [7]): 31.6 µM
IC50 (BRD3 BD1 L/V [8]): 0.501 µM
IC50 (BRD3 BD2 WT [9]): 39.8 µM
IC50 (BRD3 BD2 L/V [10]): 0.794 µM
IC50 (BRD4 BD1 WT [11]): 50.1 µM
IC50 (BRD4 BD1 L/V [12]): 2 µM
IC50 (BRD4 BD2 WT [13]): 63.1 µM
IC50 (BRD4 BD2 L/V [14]): 2 µM
IC50 (BRDT BD1 WT): 63.1 µM
IC50 (BRDT BD2 WT): 79.4 µM
IC50 (BRDT BD2 L/V): 5.01 µM
Kd (BRD2 BD1 WT [15]): > 60 µM
ΔH BRD2 BD1 L/V (BRD2 BD1 L/V [16]; ITC): -10.2 kcal/mol
N BRD2 BD1 L/V (BRD2 BD1 L/V [16]; ITC stoichiometry): 0.97
Kd (BRD2 BD1 L/V [16]; ITC, 30°C, read-out: Kd BRD2 BD1 L/V): 0.96 µM
Kd (BRD2 BD2 WT [17]): > 60 µM
ΔH BRD2 BD2 L/V (BRD2 BD2 L/V [18]; ITC): -5.3 kcal/mol
N BRD2 BD2 L/V (BRD2 BD2 L/V [18]; ITC stoichiometry): 0.94
Kd (BRD2 BD2 L/V [18]; ITC, 30°C, read-out: Kd BRD2 BD2 L/V): 1.3 µM
Kd (BRD3 BD1 WT [19]): > 60 µM
ΔH BRD3 BD1 L/V (BRD3 BD1 L/V [20]; ITC): -9.4 kcal/mol
N BRD3 BD1 L/V (BRD3 BD1 L/V [20]; ITC stoichiometry): 1.07
Kd (BRD3 BD1 L/V [20]; ITC, 30°C, read-out: Kd BRD3 BD1 L/V): 0.74 µM
Kd (BRD3 BD2 WT [21]): > 60 µM
ΔH BRD3 BD2 L/V (BRD3 BD2 L/V [22]; ITC): -4.7 kcal/mol
N BRD3 BD2 L/V (BRD3 BD2 L/V [22]; ITC stoichiometry): 0.68
Kd (BRD3 BD2 L/V [22]; ITC, 30°C, read-out: Kd BRD3 BD2 L/V): 0.61 ± 0.09 µM
Kd (BRD4 BD1 WT [23]): > 60 µM
ΔH BRD4 BD1 L/V (BRD4 BD1 L/V [24]; ITC): -5.9 kcal/mol
N BRD4 BD1 L/V (BRD4 BD1 L/V [24]; ITC stoichiometry): 0.99
Kd (BRD4 BD1 L/V [24]; ITC, 30°C, read-out: Kd BRD4 BD1 L/V): 1.6 µM
Kd (BRD4 BD2 WT [25]): > 60 µM
ΔH BRD4 BD2 L/V (BRD4 BD2 L/V [26]; ITC): -3.7 kcal/mol
N BRD4 BD2 L/V (BRD4 BD2 L/V [26]; ITC stoichiometry): 0.99
Kd (BRD4 BD2 L/V [26]; ITC, 30°C, read-out: Kd BRD4 BD2 L/V): 1 µM
binding to any WT BET bromodomain ([27]; ITC): no detectable binding
ITC pKd ± SD WT [27, 31]: <4.2
ITC pKd ± SD Δ ([28]; L/V minus WT): >1.8 ± 0.2
ITC pKd ± SD L/V [28, 31]: 6.0 ± 0.2
half-life at 50 µM (in vitro [29]): > 3 h
Papp (in vitro [30]): 4.5 ×10⁻⁶ cm/s

— paper PMC5909127, “Optimization of a “bump-and-hole” approach to allele-selective BET bromodomain inhibition” (Chemical Science, 2018)
